Measured values: paper PMC5614982, “Impact of Gastric H^+/K^+-ATPase rs2733743 on the Intragastric pH-Values of Dexlansoprazole Injection in Chinese Subjects” (Frontiers in Pharmacology, 2017)
Marks after values point to notes of the source that are not given here.

Test system: intragastric pH
Assay: 24-h intragastric pH monitoring after single intravenous dexlansoprazole in healthy Chinese subjects
Type: in vivo, human
Conditions: 30 mg iv
Description: Dexlansoprazole injection (30 mg per vial) used in the PK and PD study was manufactured by Nanjing Yoko Pharma Co., Ltd. (Nanjing, China). Subjects received an intravenous infusion of 20 or 30 mg dexlansoprazole injection in sterile saline solution (100 mL/h, 60 min). The study drug was administrated with an infusing pump (SA213, Lifepum, Beijing, China) and given through an intravenous catheter in the antecubital vein opposite to the one from which blood samples were taken.
An ambulatory pH recorder (Orion II, MMS, USA) with a disposable pH catheter (VersaFlex, MMS, USA) was used to monitor intragastric pH. The electrode was placed in water for at least 10 min and then calibrated using standard buffer solutions (pH 1.07 and 7.01) before intubation. Both calibration and intubation processes were conducted under the guidance of MMS Virtual Instructor Program. The catheter, trans nasally placed 10 cm under the lower esophageal sphincter, was identified by a sharp decrease in pH (Wang et al., [2010], [2011]). Subjects were intubated on baseline and the day of dosing at about 7:30 a.m., and the intragastric pH data were recorded continuously for 24 h from 8:00 a.m. Intragastric pH was sampled every second, and the data were stored in a MMS Database program (MMS, USA). The PD parameters including Median (pH), Mean (pH), TpH≥3 (%), TpH≥4 (%), TpH≥6 (%), TpH≥6, and AUC^pH−t were analyzed by the MMS Database program.
Median (pH) and mean (pH) were well-investigated in most studies, and the percentage time of pH ≥ 4 (or pH ≥ 4 holding time ratio) was the benchmark for predicting clinical efficacy of PPIs in treating acid-related diseases (Metz et al., [2009]). Novel parameter TpH≥6 (time to first gastric pH ≥ 6, min) and AUCτ 1-τ 2pH-t (area under pH-time curve from τ1 to τ2, pH·s) were defined to evaluate the velocity and extent of pharmacodynamics with more accuracy. All parameters were calculated and compared according to time periods of 0–24, 0–4, 4–10, 10–14, and 14–24 h post dosing.
The parameter AUCτ 1-τ 2pH-t was calculated as follows:
Where t represented the time duration measured by seconds, AUCτ 1-τ 210-t was the area between the pH line = 10 and the pH-time curve, which was generated by the MMS software.
Baseline-adjusted PD parameters were calculated as follows: for example, ΔAUC^pH−t = AUC^pH−t − AUC^pH−tbaseline, ΔMean (pH) = Mean (pH) − Mean (pH)^baseline, and ΔMedian (pH) = Median (pH) − Median (pH)^baseline.

[1] = CYP2C19 EMs, H+/K+-ATPase Het (n = 8), 0–4 h
[2] = CYP2C19 EMs, H+/K+-ATPase Het (n = 8), 0–24 h
[3] = CYP2C19 EMs, H+/K+-ATPase Het (n = 8), 14–24 h
[4] = CYP2C19 EMs, H+/K+-ATPase Hom (n = 7), 0–4 h
[5] = CYP2C19 EMs, H+/K+-ATPase Hom (n = 7), 0–24 h
[6] = CYP2C19 EMs, H+/K+-ATPase Hom (n = 7), 14–24 h

## Cc1c(OCC(F)(F)F)ccnc1C[S@@+]([O-])c1nc2ccccc2[nH]1 [dexlansoprazole]
14–24 h
  TpH≥6(%): 49.2 ± 25.2%
  ΔMean (pH): 2.8 ± 1.4 pH
  ΔMedian (pH): 3.1 ± 1.9 pH
  ΔTpH≥3(%): 60.0 ± 26.0%
  ΔTpH≥4 (%): 54.8 ± 28.3%
  ΔTpH≥6(%): 35.2 ± 25.6%
CYP2C19 EM (n = 11), 0–4 h
  Mean (pH): 5.7 ± 1.6 pH
  Median (pH): 6.2 ± 2.1 pH
  TpH≥3(%): 73.9 ± 21.7%
  TpH≥4(%): 69.3 ± 24.3%
  TpH≥6(%): 58.7 ± 31.9%
  ΔMean (pH): 3.2 ± 1.1 pH
  ΔMedian (pH): 3.9 ± 1.8 pH
  ΔTpH≥3(%): 48.6 ± 24.5%
  ΔTpH≥4 (%): 51.9 ± 17.7%
  ΔTpH≥6(%): 53.0 ± 27.4%
CYP2C19 EM (n = 11), 0–24 h
  Mean (pH): 5.7 ± 1.3 pH
  Median (pH): 5.9 ± 1.7 pH
  TpH≥3(%): 80.0 ± 19.5%
  TpH≥4(%): 73.0 ± 23.2%
  TpH≥6(%): 56.4 ± 24.1%
  ΔMean (pH): 2.8 ± 1.1^c pH
  ΔMedian (pH): 3.7 ± 1.5 pH
  ΔTpH≥3(%): 47.9 ± 20.2^c %
  ΔTpH≥4 (%): 50.4 ± 21.3^c %
  ΔTpH≥6(%): 47.4 ± 19.7^c %
CYP2C19 EM (n = 11), 14–24 h
  Mean (pH): 4.9 ± 1.7 pH
  Median (pH): 4.5 ± 2.0 pH
  TpH≥3(%): 67.5 ± 34.5%
  TpH≥4(%): 56.3 ± 37.2%
  TpH≥6(%): 37.1 ± 25.0^c %
  ΔMean (pH): 2.0 ± 1.2^c pH
  ΔMedian (pH): 2.1 ± 1.8^c pH
  ΔTpH≥3(%): 47.0 ± 27.6^c %
  ΔTpH≥4 (%): 38.6 ± 27.9^c %
  ΔTpH≥6(%): 21.1 ± 18.0^c %
[1]
  Mean (pH): 4.7 ± 2.4 pH
  Median (pH): 4.5 ± 2.8 pH
  TpH≥3(%): 63.7 ± 35.7%
  TpH≥4(%): 56.9 ± 39.3^c %
  TpH≥6(%): 39.4 ± 48.2%
  ΔMean (pH): 2.2 ± 0.8^c pH
  ΔMedian (pH): 1.9 ± 1.0^a^,^c pH
  ΔTpH≥3(%): 36.4 ± 20.1%
  ΔTpH≥4 (%): 35.0 ± 11.7%
  ΔTpH≥6(%): 33.8 ± 39.0%
[2]
  Mean (pH): 5.1 ± 1.7 pH
  Median (pH): 4.9 ± 2.1 pH
  TpH≥3(%): 70.1 ± 26.3%
  TpH≥4(%): 62.9 ± 33.1%
  TpH≥6(%): 48.0 ± 32.5%
  ΔMean (pH): 2.3 ± 0.6^c pH
  ΔMedian (pH): 2.9 ± 1.6 pH
  ΔTpH≥3(%): 40.8 ± 11.1^c %
  ΔTpH≥4 (%): 41.4 ± 17.3^c %
  ΔTpH≥6(%): 37.3 ± 19.1%
[3]
  Mean (pH): 4.1 ± 2.1 pH
  Median (pH): 3.5 ± 2.2 pH
  TpH≥3(%): 53.0 ± 41.0%
  TpH≥4(%): 44.6 ± 48.0%
  TpH≥6(%): 30.2 ± 32.6%
  ΔMean (pH): 1.2 ± 0.4^c pH
  ΔMedian (pH): 0.5 ± 0.5^c pH
  ΔTpH≥3(%): 31.5 ± 13.0^c %
  ΔTpH≥4 (%): 25.1 ± 16.9%
  ΔTpH≥6(%): 11.6 ± 2.9^c %
[4]
  Mean (pH): 6.6 ± 0.5 pH
  Median (pH): 7.8 ± 0.1 pH
  TpH≥3(%): 78.7 ± 10.0%
  TpH≥4(%): 77.1 ± 11.6^b %
  TpH≥6(%): 75.5 ± 12.2%
  ΔMean (pH): 4.3 ± 0.4^b pH
  ΔMedian (pH): 5.9 ± 0.4^b pH
  ΔTpH≥3(%): 62.5 ± 11.6%
  ΔTpH≥4 (%): 67.2 ± 2.4%
  ΔTpH≥6(%): 70.1 ± 4.5%
[5]
  Mean (pH): 6.8 ± 0.2 pH
  Median (pH): 7.5 ± 0.4 pH
  TpH≥3(%): 95.1 ± 1.1%
  TpH≥4(%): 87.9 ± 4.7%
  TpH≥6(%): 73.4 ± 3.7%
  ΔMean (pH): 4.3 ± 0.4^a^,^b pH
  ΔMedian (pH): 5.4 ± 0.3 pH
  ΔTpH≥3(%): 77.4 ± 6.3^a^,^b %
  ΔTpH≥4 (%): 78.0 ± 1.5^a^,^b %
  ΔTpH≥6(%): 68.7 ± 7.9%
[6]
  Mean (pH): 6.2 ± 0.4 pH
  Median (pH): 6.3 ± 1.3 pH
  TpH≥3(%): 96.8 ± 1.2%
  TpH≥4(%): 80.4 ± 6.2%
  TpH≥6(%): 51.5 ± 10.9%
  ΔMean (pH): 3.7 ± 0.5^a^,^b pH
  ΔMedian (pH): 4.2 ± 0.8^b pH
  ΔTpH≥3(%): 83.1 ± 5.9^a^,^b %
  ΔTpH≥4 (%): 72.4 ± 1.5%
  ΔTpH≥6(%): 45.8 ± 17.4^a^,^b %
